Patent publication US10080747B2, “Nicotinic attenuation of CNS inflammation and autoimmunity” (priority 2008, dated 2018)
Where two headings read alike, the source gives them in different places.

Assays:
CNS mononuclear cells = conditions: day 11 p.i.
Experimental: For CNS cell isolates, at day 11 after EAE induction (peak stage), mice were sacrificed and perfused with PBS through the left heart ventricle to eliminate contaminating blood cells in the CNS. The CNS mononuclear cells were then isolated from five to six mice using Percoll gradients and stained for cell surface markers. Antibodies were directly labeled and analyzed as done for splenocytes. The absolute number of a particular cell subset was calculated by counting the total number of mononuclear cells isolated from the CNS of individual mice and multiplying by the percentage of those cells acquired by FACSAria flow cytometry (Bai, X. F., et al., J Exp Med 200:447-458).

spleen mononuclear cells [1] = conditions: day 11 p.i.
[2] = system: adoptively transferred EAE in B6 mice; conditions: recipients of T cells from nicotine-treated donors
[3] = system: MOG35-55-specific T cells; conditions: splenocytes day 11 p.i.
Text: Isotype-matched negative monoclonal antibodies were used as controls.

MOG-specific antibodies = system: MOG-specific antibodies
Experimental: MOG-reactive antibodies were quantified by enzyme-linked immunoabsorbent assay (ELISA). Briefly, microtiter plates (Corning Glass Works, Corning, N.Y., USA) were coated with 100 μl/well of murine MOG35-55 (10 μg/ml) at 4° C. overnight. After blocking with 10% fetal bovine serum, serum samples (day 11, peak stage after immunization) were added and incubated at 4° C. overnight. Plates were then incubated for 2 h with biotinylated rabbit anti-mouse IgG, IgG1, IgG2a, IgA, IgG3 and IgG2b (Invitrogen, Carlsbad, Calif., USA), followed by alkaline phosphatase-conjugated ABC reagent (Dakopatts; R&D systems, Minneapolis, Minn., USA). The color was developed with p-nitrophenyl-phosphate. Results were expressed as optical density (OD) at […].

Th cells = system: Th cells
Experimental: Single cell suspensions (4×10^7 cells) were prepared and incubated at 37° C. for 3 days in round-bottom plates (2×10^6 cells/well) with or without antigens (MOG 10 μg/ml, PLP 10 µg/ml or Con A 2.5 μg/ml), and stimulated with PMA (20 ng/ml)/ionomycin (1 μg/ml)/brefeldin A (5 μg/ml) for another 5 h at 37° C. After harvesting, cells were stained for surface markers with fluorochrome-conjugated monoclonal antibodies including anti-CD3-PE/Cy5 (17A2), anti-CD4-APC/Cy7 (GK1.5), and anti-CD8α-PE/Cy7 (53-6.7) (BD Bioscience). Isotype-matched negative monoclonal antibodies were used as controls. For intracellular cytokine staining, after fixation and permeabilization with Cytofix/Cytoperm kit (BD Bioscience), anti-IFN-γ, anti-IL-4, anti-IL-10 and anti-IL-17 monoclonal antibody conjugated with Alexa 647 were used. All samples were analyzed on a FACSAria using Diva. To determine the percentage of cells producing cytokine, the value obtained with the isotype control was subtracted from that with specific antibody. For cytokine induction, supernatants were collected 3 days after in vitro boosting. IFN-γ, IL-10, IL-2 and TGF-β were measured by optEIA kits (PharMingen and eBioscience).

spleen mononuclear cells [4] = conditions: annexin V and PI double staining, at the current dose (13 mg/kg/d)
Experimental: Cell viability was assessed by trypan blue dye exclusion. […] Single cell suspensions were washed in PBS and resuspended in binding buffer containing annexin V-FITC and propidium iodide (PI) (both from BD Biosciences) for 20 min at room temperature. The samples were analyzed on a FACSAria using Diva.

spinal cord of EAE mice = conditions: day 25 p.i., vs PBS
Experimental: Mice were anesthetized with pentobarbital and perfused by intracardiac puncture with 50 ml of cold PBS. Spinal cords were removed and fixed in 10% formalin/PBS. Paraffin-embedded longitudinal sections were prepared and stained for hematoxylin and eosin (H&E), luxol fast blue (LFB, myelin staining) and Biechowsky silver (axon staining). The percentages of spinal cord inflammation, demyelination and axonal damage per mouse were calculated by first determining the total white matter area for all spinal cord sections by manually tracing the regions. Next, the areas of spinal cord inflammation, demyelination and axonal damage were determined by manually tracing each section. Pathological changes in each spinal cord were scored as follows: 0 no changes; 1 focal area involvement; 2 <5% of total myelin area involved; 3 5-10% of total myelin area involved; 4 10-20% involved area; 5 >20% of total myelin area involved (Bai, X. F., et al., J Exp Med 200:447-458).

acute EAE in B6 mice = conditions: for mean clinical score, remaining mild motor deficit after recovery: PBS 2.75±0.25; for mean maximal clinical score: scale 0 to 5, PBS 4.25±0.80
[5] = serum day 11 after immunization, vs control mice
[6] = supernatants of splenocytes cultured with MOG35-55, vs controls
[7] = nicotine pre-treated group (day −7)

CN1CCCC1c1cccnc1 (centres unmarked) [nicotine]
CD11b+ (macrophage/microglia) and CD11c+ (dendritic) cells in the CNS (CNS mononuclear cells; vs PBS): lower percentages and absolute numbers | expression of MHC class II, CD80 and CD86 on CNS CD11c and CD11b cells (CNS mononuclear cells; vs PBS): reduced | numbers of T cells (CD3+, CD4+, CD8+) and B cells (CD3−CD19+) in the CNS (CNS mononuclear cells; vs PBS-treated EAE mice): drastically reduced | percentages and numbers of CD3+, CD4+ and CD8+ T cells and CD19+CD3− B cells among splenocytes (spleen mononuclear cells [1]; nicotine from day 0, vs control EAE mice, p<0.05): various degrees of reductions | expression of Foxp3 (spleen mononuclear cells [1]; spleen, vs PBS): clearly augmented | NK cells, NKT cells and CD4+CD25+ regulatory T cells in spleen (spleen mononuclear cells [1]; vs PBS): did not differ significantly | expression of MHC class II, CD80 and CD86 on peripheral CD11c+ and CD11b+ cells (spleen mononuclear cells [1]; vs PBS): reductions in the expression of MHC class II, CD80 and CD86 were notable | numbers and percentages of CD11c+ and CD11b+ cells in spleen (spleen mononuclear cells [1]; vs PBS): not dramatically altered | mean clinical score [2]: 1.0±0.15 | maximal clinical score ([2]; control 5.0±0.25): 2.5±0.82 | T cell proliferation in response to MOG, 3H incorporation ([3]; p<0.05 vs PBS): far fewer T cells | proliferation of CD3+, CD4+ and CD8+ T cells in response to MOG, CFSE assay ([3]; vs PBS): reduced proliferation | MOG-specific IgG2b production (MOG-specific antibodies; mouse, in vivo): profoundly impaired | MOG-specific IgA synthesis (MOG-specific antibodies; [5]): markedly increased | MOG-specific IgG1 synthesis (MOG-specific antibodies; [5]): markedly increased | production of TGF-β1 (Th cells; supernatants of splenocytes cultured with MOG35-55, p<0.01): significantly augmented | production of IL-10 (Th cells; supernatants of splenocytes cultured with MOG35-55, p<0.05): significantly augmented | IFN-γ production (Th cells; [6]): significant decrease | production of IL-2 (Th cells; [6]): decreased | T cell apoptosis and death (spleen mononuclear cells [4]): did not induce T cell apoptosis | axonal damage, Biechowsky silver (spinal cord of EAE mice): scarcely affected | demyelination, LFB staining (spinal cord of EAE mice): myelin sheets were largely preserved | spinal cord inflammation (cellular infiltration), H&E (spinal cord of EAE mice): few infiltrating cells | onset of EAE (acute EAE in B6 mice; nicotine 13 mg/kg/d for 7 days by minipump, prior to or on the day of disease induction, PBS controls 7.6±0.53 days): ≥ 10 day p.i. | day by which the majority of animals recovered (acute EAE in B6 mice; [7]): ≤ 21 days | mean clinical score, remaining mild motor deficit after recovery (acute EAE in B6 mice; [7]): 0.83±0.26 | day by which the majority of animals recovered (acute EAE in B6 mice; nicotine-treated group (day 0)): ≤ 24 days | mean clinical score, remaining mild motor deficit after recovery (acute EAE in B6 mice; nicotine-treated group (day 0)): 0.85±0.25 | mean maximal clinical score (acute EAE in B6 mice; pre-treatment starting day −7, 13 mg/kg/d x 7): 3.17±0.78 | mean maximal clinical score (acute EAE in B6 mice; treatment starting day 0 after immunization, 13 mg/kg/d x 7): 3.13±0.25 | severity of EAE compared with PBS (acute EAE in B6 mice; treatment starting day 7 p.i. when EAE signs began, 13 mg/kg/d x 7): significantly milder EAE | mean clinical score at the termination of experiments (acute EAE in B6 mice; treatment starting day 7 p.i., 13 mg/kg/d x 7): 0.69±0.43
